The source of these data is patent US20260165988A1, “PHARMACEUTICAL COMPOSITION FOR PREVENTING OR TREATING HEARING LOSS COMPRISING AMMONIUM LACTATE AS ACTIVE INGREDIENT” (KOREA UNIVERSITY RESEARCH AND BUSINESS FOUNDATION, priority 2022, published 2026).

This data set deals with hair cells in the lateral line of zebrafish. The data set is described as follows: Analysis of hair cells in zebrafish larvae: protection against gentamicin-induced hair cell damage. The class given is in vivo. On the procedure:
Zebrafish larvae (Wild type, Brn3c: EGFP, etc.) were cultured in the breeding room of our research institute. Each larva was cultured in embryo medium (15 mM NaCl, 0.5 mM KCl, 1 mM CaCl2, 1 mM MgSO4, 0.15 mM KH2PO4, 0.05 mM […], and 0.7 mM NaHCO3).
Gentamicin, an ototoxicity-inducing substance, was administered to zebrafish 5 days after fertilization, and the concentration of […] (LC 50) that induces 50% damage to hair cells in the lateral line of zebrafish as well as the time were determined. In the study results, 50 μM gentamicin was chosen since approximately 50% of the hair cells were damaged when administered for 1 hour. The effect was observed when 10 μM, 100 μM, 500 μM, and 1000 μM ammonium lactate were co-administered with 50 μM gentamicin for 1 hour.
There were four sites in hair cells of zebrafish, including orbits (SO1 and SO2), ear (O1), and larynx (OC1), and the number of hair cells was analyzed using a microscope (fluorescence microscope, confocal microscope, etc.). The effects of candidate substances capable of suppressing damage to hair cells caused by gentamicin were compared and analyzed by administering the candidate substances to zebrafish larvae at different concentrations.
To verify the protective effect of ammonium lactate on hair cells in zebrafish, ammonium lactate and gentamicin were co-administered to zebrafish, and the viability of hair cells was compared with that of the control group.

With `CC(O)C(=O)O.N` (centres unmarked) [ammonium lactate], where the note is “10 μM, 100 μM, 500 μM and 1000 μM ammonium lactate co-administered with 50 μM gentamicin”, the “viability of hair cells (trend)” value is recorded as “increased in a concentration-dependent manner”. Besides, the “increase in the viability of hair cells” value is “approximately 10%” (100 μM ammonium lactate + 50 μM gentamicin), “approximately 10%” (500 μM ammonium lactate + 50 μM gentamicin) and no less than 60% (1000 μM ammonium lactate + 50 μM gentamicin). For the same molecule, the “number of hair cells” value runs as follows: (100 μM ammonium lactate co-administered with 50 μM gentamicin for 1 hour, gentamicin only 26) 28; (500 μM ammonium lactate co-administered with 50 μM gentamicin for 1 hour, gentamicin only 26) 29; (1000 μM ammonium lactate co-administered with 50 μM gentamicin for 1 hour, gentamicin only 26) 42. In addition, where the note is “zebrafish, gentamicin-induced damage”, the “protective effect on hair cells (conclusion)” value is “has a protective effect on hair cells”.

As to gentamicin [reference compound], the hair cells damaged result (50 μM gentamicin administered for 1 hour, zebrafish 5 days after fertilization) is on record as “approximately 50%”. Moreover, the “decrease in the viability of hair cells” value (50 μM gentamicin only vs untreated control) amounted to 50%. In addition, the “number of hair cells” value (50 μM gentamicin only, no ammonium lactate, untreated control 53) came to 26.
